SMILES strings stand for the structures.

A short description of this data set: gradient 5% acetonitrile 3 min, to 50% in 2 min, to 85% in 15 min, held 3 min, 100 µL/min. The conditions noted are these: column: Zorbax Extend-C18 2.1 x 50 mm; eluents: water / acetonitrile, 0.1% formic acid. The method in brief:
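Values are retention times taken from adduct peaks that software picked and an analyst inspected. The pure standards were run as mixtures of ~100 molecules on HPLC linked to a quadrupole time-of-flight mass spectrometer, in positive and negative ionization mode. A Zorbax Extend-C18 column (2.1 × 50 mm, 1.8 μm) was used at 100 μL/min with water and acetonitrile, each including 0.1% formic acid.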
As to `O=C(CCN1C(=O)c2ccccc2C1=O)OCC(=O)c1ccc(Cl)cc1Cl`, the RP-LC retention time was determined as 954 s. `O=C(COc1ccccc1-c1nnc(-c2ccccc2)o1)NCc1ccc2c(c1)OCO2` returned an RP-LC retention time of 1030 s.

Molecule `CC(=O)c1sc(Nc2nc3cc4c(cc3s2)OCO4)nc1C` registered an RP-LC retention time of 778 s. Next, `CC(=O)Nc1cccc(-n2cc3c(c2-c2ccccc2Cl)c(=O)n(C)c(=O)n3C)c1`: 768 s; `Cc1csc(CN2CCN(C(=O)CC(c3ccccc3)c3ccccc3)CC2)n1`: 665 s; `Cc1ccc(Nc2nc(C)cc(N3CCN(S(=O)(=O)c4ccc(F)c(F)c4)CC3)n2)cc1`: 808 s. Turning to `CC(NC(=O)c1ccc(F)c(F)c1)C(=O)Nc1nc2ccccc2[nH]1` (stereo not given), the RP-LC retention time came out at 655 s. As for `Cc1ccc2c(=O)c(C(=O)N3CCC(C)CC3)cn(CC(=O)NC3CCCCC3)c2n1`, the figure is 762 s.

Consider `Cc1ccc(N2C(=O)c3ccc(C(=O)N4CCN(c5ccccc5F)CC4)cc3C2=O)cc1`, for which the RP-LC retention time worked out at 982 s. On to `CCn1cc(CCNC(=O)Nc2ccccc2OC)c2cccnc21`, for which the RP-LC retention time was 718 s. Molecule `Cc1cccc2nnc(N3CCN(C(=O)c4cccs4)CC3)n12` yielded an RP-LC retention time of 618 s. As for `CCOc1ccc(-c2cc(C(F)(F)F)nn2-c2nc(-c3ccc(F)cc3)cs2)cc1`, the figure is 882 s. As for `CCCn1nccc1-c1csc(S(=O)(=O)NC(C)(C)CC)c1`, the figure is 975 s; as for `CC(=O)N(Cc1nn(C)c2c1CN(S(=O)(=O)c1ccccc1F)CC2)c1ccccc1`, 779 s; as for `CC(=O)c1cccc(NC(=O)N2CCc3nc[nH]c3C2)c1`, 556 s. Next, `Cc1cc(NC(=O)c2cccn2-c2cccnc2)ccc1Br`: 881 s; `Cc1ccc(-c2nc(C)c(C(=O)NC(C)C)s2)cc1`: 949 s; `O=C(Cn1nc2n(c1=O)CCCCC2)NCc1ccc2c(c1)OCO2`: 756 s. `COc1ccc(OCc2nc(-c3ccc(-c4csc(C5CC5)n4)cc3)no2)cc1` returned an RP-LC retention time of 1300 s. Next, `Cc1ccc(NC(=O)Cn2nc(N(C)C)c3ccccc3c2=O)cc1`: 857 s; `COc1cc(C(C[N+](=O)[O-])c2c(-c3ccccc3)[nH]c3ccccc23)cc(OC)c1OC` (stereo not given): 952 s. Next, `CCCn1c(=O)c2c(nc3n2CCN3c2ccc(OC)cc2)n(C)c1=O`: 834 s.

`Cc1ccc(-c2nc(-c3ccc4c(c3)ncn4CCN3CCOCC3)no2)c(C)c1` showed an RP-LC retention time of 698 s.

For `COCc1nc2c(N)cccn2n1`, the RP-LC retention time was 569 s. Next, `Cc1ccc(NC(=O)CN2CCc3[nH]c4c(C)c(Cl)ccc4c(=O)c3C2)c(Cl)c1`: 741 s; `CC(C)NC(=O)c1ccc(OCC2CCCN(C(=O)c3ccccc3Cl)C2)cc1` (stereo not given): 876 s. As for `CC(C)n1cc(C2=CCN(S(=O)(=O)c3cccc4cccnc34)CC2)c2cccnc21`, the figure is 993 s; as for `Cc1ccc(S(=O)(=O)Cc2noc(CCNS(=O)(=O)c3ccc(C)cc3)n2)cc1`, 875 s. `O=C1C2N=NN(Cc3nc(-c4ccc5c(c4)OCO5)no3)C2C(=O)N1c1ccccc1` (stereo not given) showed an RP-LC retention time of 893 s. As for `O=C([C@@H]1C[C@H](F)CN1S(=O)(=O)c1ccccc1F)N1CCc2ccccc2C1`, the RP-LC retention time was 887 s.

`CS(=O)(=O)NCC1CCC(C(=O)Nc2ccc3c(c2)Cc2ccccc2-3)CC1` (stereo not given): the RP-LC retention time was 840 s.

For the molecule `CCN(CC)CCSc1ccc(C(=O)N2CCN(c3ncccn3)CC2)cn1`, the RP-LC retention time is 600 s. In turn, `COc1ccc(C)cc1NC(=O)C1N(C(C)C)C(=O)C12CCCC2` (stereo not given) had an RP-LC retention time of 844 s.

In turn, `O=C(Cn1ncc2c(N3CCN(c4ccccn4)CC3)ncnc21)Nc1ccccc1Cl` registered an RP-LC retention time of 564 s.

Take `COc1ccc(-c2ccnn2-c2ccc(SCc3ccccc3C)nn2)cc1`: the RP-LC retention time turned out to be 1390 s. `O=C(Nc1ccc(Cl)cc1F)C1CCCN(C(=O)Cc2cccc3ccccc23)C1` (stereo not given) gave an RP-LC retention time of 1050 s. In turn, `CCc1ccc(C(O)CN2CCN(c3ccccc3)CC2)cc1` (stereo not given) displayed an RP-LC retention time of 692 s. As for `Cn1c(C(=O)N2CCN(c3cccc(Cl)c3)CC2)cc2sccc21`, the figure is 1090 s; as for `COc1ccc(CNC(=O)Nc2cc3c(cc2Oc2ccccc2)n(C)c(=O)n3C)cc1`, 840 s.

As to `O=C(NC1CCCCC1)c1ccc(CN2CCN(Cc3ccccc3)C(=O)C2=O)cc1`, the RP-LC retention time stood at 787 s. Molecule `Cn1cccc1CN(C(=O)CC(c1ccccc1)c1ccccc1)C1CC1` had an RP-LC retention time of 1080 s.

`CN(C)C(=O)c1n[nH]c2c1CN(C(=O)c1cccc(Cl)c1)CC2` showed an RP-LC retention time of 642 s. `CS(=O)(=O)N1CCC(C(=O)Nc2ccccc2)Oc2ccc(Cl)cc21` (stereo not given): the RP-LC retention time is 887 s. As for `CCN1C=C(C(=O)OCc2ccc(Cl)cc2)C(C)=NS1(=O)=O`, the figure is 1060 s; as for `COCCn1cc(C(=O)NC2CCCC2)c2nn(-c3ccccc3)c(=O)c-2c1`, 843 s. `COC(=O)c1cnc(N2CCN(c3ccccc3F)CC2)c2ccccc12`: the RP-LC retention time turned out to be 1240 s. Next, `Cc1ccc(Cl)cc1N1CCN(C(=O)c2[nH]c(C)c(S(=O)(=O)N3CCOCC3)c2C)CC1`: 984 s. As for `COc1cccc(-c2csc(Cc3nc(-c4ccccc4Cl)no3)n2)c1`, the figure is 1150 s; as for `CC1CCCC(NC(=O)c2cc(=O)[nH]c3ccc(Br)cc23)C1C` (stereo not given), 869 s. In turn, `Cc1nc(-c2cc(S(=O)(=O)N3CCC(C(=O)NC4CCCCCCC4)CC3)c(C)s2)no1` returned an RP-LC retention time of 1070 s. Next, `O=C(C1CCN(c2nnc(-c3ccccc3)o2)CC1)N1CCC2(CC1)OCCO2`: 701 s.

As to `COc1cccc(N2CCn3c2nc2c3c(=O)n(CC(=O)O)c(=O)n2C)c1`, the RP-LC retention time stood at 702 s. As for `Cc1nc(-c2ccc(C(=O)N3CCCc4ccccc43)cc2)no1`, the figure is 929 s. For the molecule `CCOC(=O)N1CCN(c2ncc3c(n2)CC(C)CC3=O)CC1` (stereo not given), the RP-LC retention time was determined as 842 s. Molecule `CCOC(=O)c1ccc(N2CCCC2)nn1` came in with an RP-LC retention time of 562 s.

`Cc1cccc(CNC(=O)C2CC(=O)N(c3ccc4c(c3)CCN4C(=O)C3CC3)C2)c1` (stereo not given) yielded an RP-LC retention time of 768 s. As for `COCCCNC(=O)C1(CCO)CCN(Cc2ccccc2)C1` (stereo not given), the figure is 560 s. Next, `O=C1CC(c2noc(-c3cc(Cl)ccc3F)n2)CN1c1ccc(F)cc1` (stereo not given): 1100 s; `Cc1nc(C(=O)NCC(=O)O)c(O)c2ccc(Oc3ccccc3)cc12`: 793 s. As for `CCOCCCNC(=O)C1CCN(C2=NS(=O)(=O)C(c3ccc(Cl)cc3)=C2C)CC1`, the RP-LC retention time came out at 780 s. Next, `CCCN1C(=O)COc2ccc(-c3noc(-c4ccccc4F)n3)cc21`: 1160 s; `Cc1cc(C)n(-c2ccnc(N3CCC(C(=O)NCc4ccco4)CC3)n2)n1`: 742 s; `O=C(Cn1nc2c(N3CCCCCC3)nccn2c1=O)NCc1ccc2c(c1)OCO2`: 659 s. Next, `Cc1ccc(-c2nc(Nc3ccc(C)c(Cl)c3)sc2CC(=O)O)cc1`: 1100 s; `CC(C)Oc1ccccc1CN1CCC2(CC1)CN(C)CC2c1nnc(C(C)C)o1` (stereo not given): 569 s; `CCOc1ccc(-n2ccn3c(CC(C)CC(=O)NC4CCCC4)nnc3c2=O)cc1` (stereo not given): 710 s. With `Cc1nn(S(=O)(=O)N(C)C)c(C)c1Br`, the RP-LC retention time stood at 881 s. As for `CCc1nnc(-c2cn(CC(=O)Nc3ccc(F)c(F)c3)c3ccccc23)o1`, the figure is 888 s; as for `Cc1cccc(-n2ccn(CC#N)c(=O)c2=O)c1C`, 639 s; as for `Cc1ccc(N2C(=O)CN(S(C)(=O)=O)CC2(C)C(=O)NC2CCCCCCC2)cc1Cl` (stereo not given), 980 s. Next, `COc1ccc(CN2C=C(C(=O)OCc3noc(-c4ccc(C)cc4)n3)C(C)=NS2(=O)=O)cc1`: 1170 s; `CN1CCCn2cc(S(=O)(=O)NCc3ccc(F)cc3Cl)cc2C1=O`: 707 s; `COCCCNC(=O)C1CCCN(c2ccc(-c3ccc(C)c(C)c3)nn2)C1` (stereo not given): 647 s. The molecule `CC(C)NC(=O)C1Cn2cccc2C(=O)N1` (stereo not given) showed an RP-LC retention time of 578 s. Next, `COc1ccc(CC(=O)N2C[C@@H]3C[C@H](NC(=O)c4ccccc4)[C@H]2C3)cc1`: 725 s; `CCCCCCCCCCNCCSSCc1ccc(Cl)cc1`: 1120 s; `CCOC(=O)c1c(C)[nH]c(C)c1S(=O)(=O)N1CCC(C(=O)Nc2ccc(NC(C)=O)cc2)CC1`: 666 s. On to `CCC1(O)CCOC2(CCN(C(=O)CC3CC3)CC2)C1` (stereo not given), for which the RP-LC retention time came out at 627 s.

`CC(C)NC(=O)CCn1c(=O)c2ccccc2n2c(=O)n(Cc3ccccc3)nc12` had an RP-LC retention time of 801 s. `CCn1nc(CNC(=O)c2cccs2)c2ccccc21` yielded an RP-LC retention time of 798 s.

Source of the values: the METLIN SMRT retention time set (Domingo-Almenara et al. 2019).
